This note sets out measurements from ChEMBL document CHEMBL3259796, “Synthesis and in-vivo hypolipidemic activity of some novel substituted phenyl isoxazol phenoxy acetic acid derivatives” (Bioorg Med Chem Lett, 2014).

Each structure is given as a SMILES string.

A short description of series [1]: Retardation factor of the compound using chloroform/methanol at 4:1 ratio. Type of series: physicochemical.
Series [2] in a line: Retardation factor of the compound using ethyl acetate/n-hexane at 1:1 ratio. Type of series: physicochemical.
For series [3], the system named is Rattus norvegicus. The series can be described thus: Hypolipidemic activity in triton WR-1339 Wistar rat assessed as total cholesterol at 250 mg/kg, po for 7 days (reference value: 209 +/- 1.45 mg/dl). Type of series: functional.
The test system of series [4] is Rattus norvegicus. The series can be described thus: Hypolipidemic activity in triton WR-1339 Wistar rat assessed as low-density lipoprotein at 250 mg/kg, po for 7 days (reference value: 154 +/- 1.82 mg/dl). The format is functional.
Series [5] relates to Rattus norvegicus. The series can be described thus: Hypolipidemic activity in triton WR-1339 Wistar rat assessed as very low-density lipoprotein at 250 mg/kg, po for 7 days (reference value: 38 +/- 1.80 mg/dl). Type of series: functional.
For series [6], the system named is Rattus norvegicus. Put plainly: Hypolipidemic activity in triton WR-1339 Wistar rat assessed as increase in protection at 250 mg/kg, po for 7 days. The format is functional.
Series [7] relates to Rattus norvegicus. Put plainly: Hypolipidemic activity in triton WR-1339 Wistar rat assessed as high-density lipoprotein at 250 mg/kg, po for 7 days (reference value: 17 +/- 1.70 mg/dl). Type of series: functional.
Series [8] relates to Rattus norvegicus. The series can be described thus: Hypolipidemic activity in triton WR-1339 Wistar rat assessed as triglyceride at 250 mg/kg, po for 7 days (reference value: 190 +/- 1.98 mg/dl). The format is functional.
Series [9] relates to Rattus norvegicus. The series can be described thus: Hypolipidemic activity in triton WR-1339 Wistar rat assessed as atherogenic index at 250 mg/kg, po for 7 days (reference value: 10.18 no unit). The format is functional.

For the compound `O=C(/C=C/c1ccccc1O)c1ccccc1`, the Rf in series [1] was 0.49.

Take `COc1cc(-c2cc(-c3ccccc3)on2)ccc1O`: the Rf in series [2] was found to be 0.57.

As for `CC(C)OC(=O)C(C)(C)Oc1ccc(C(=O)c2ccc(Cl)cc2)cc1` [FENOFIBRATE], the Activity in the series on Rattus norvegicus [3] is 116.5 mg/dL; in the series with Rattus norvegicus [4] it was 48.2 mg/dL; in the series on Rattus norvegicus [5] it was 23.8 mg/dL; in the series with Rattus norvegicus [6] it was 83.6%; in the series with Rattus norvegicus [7], 44.5 mg/dL; in the series on Rattus norvegicus [8], 119 mg/dL.

For the compound `O=C(O)COc1ccc(-c2cc(-c3ccc(F)cc3)on2)cc1`, the Activity in the series with Rattus norvegicus [3] worked out at 81 mg/dL; in the series with Rattus norvegicus [4] it was 16.4 mg/dL; in the series with Rattus norvegicus [5], 21.1 mg/dL; with Rattus norvegicus [6] it was 85.95%; with Rattus norvegicus [7] it was 43.5 mg/dL; in the series with Rattus norvegicus [8], 105.5 mg/dL. Also, the Rf in series [2] is reported as 0.52. Also, the AI with Rattus norvegicus [9] was 1.43.

For the compound `O=C(O)COc1ccc(-c2cc(-c3ccccc3)no2)cc1`, the Activity with Rattus norvegicus [3] was 88 mg/dL; in the series with Rattus norvegicus [4], 11.1 mg/dL; in the series on Rattus norvegicus [5] it was 26.4 mg/dL; in the series with Rattus norvegicus [6], 77.8%; in the series with Rattus norvegicus [7] it was 40.5 mg/dL; in the series on Rattus norvegicus [8] it was 132 mg/dL. In addition, in series [2], the Rf came out at 0.56. The AI with Rattus norvegicus [9] was 2.26.

`Oc1ccc(-c2cc(-c3ccccc3Cl)no2)cc1`: the Rf in [2] was determined as 0.6.

For `COc1cc(-c2cc(-c3ccccc3)on2)ccc1OCC(=O)O`, the Activity in the series with Rattus norvegicus [3] amounted to 94 mg/dL; in the series on Rattus norvegicus [4] it was 25 mg/dL; in the series with Rattus norvegicus [5], 23 mg/dL; in the series with Rattus norvegicus [6], 85.27%; in the series on Rattus norvegicus [7], 46 mg/dL; in the series with Rattus norvegicus [8] it was 115 mg/dL. The Rf in series [2] is listed as 0.56. Moreover, the AI in the series with Rattus norvegicus [9] was found to be 1.5.

`COc1ccccc1-c1cc(-c2ccc(O)cc2)on1`: the Rf in [2] is on record as 0.59.

For `Oc1ccc(-c2cc(-c3ccccc3)no2)cc1`, in series [2], the Rf is recorded as 0.56.

`COc1cc(-c2cc(-c3ccc(O)cc3)on2)cc(OC)c1OC`: the Rf in series [2] is reported as 0.63.

Regarding `O=C(/C=C/c1ccco1)c1ccc(O)cc1`, in series [1], the Rf turned out to be 0.61.

As to `COc1cc(/C=C/C(=O)c2ccc(O)cc2)cc(OC)c1OC`, the Rf in [1] was 0.48.

Consider `Oc1ccc(-c2cc(-c3ccc(F)cc3)on2)cc1`, for which the Rf in series [2] came to 0.5.

For `Oc1ccc(-c2cc(-c3c(Cl)cccc3Cl)no2)cc1`, the Rf in series [2] is reported as 0.58.

On to `O=C(/C=C/c1ccccc1)c1ccc(O)cc1` [4'-HYDROXYCHALCONE], for which the Rf in [1] came to 0.53.

Take `O=C(O)COc1ccccc1-c1cc(-c2ccccc2)on1`: the Activity came out at 91 mg/dL in the series with Rattus norvegicus [3]; 23.3 mg/dL with Rattus norvegicus [4]; 25.2 mg/dL with Rattus norvegicus [5]; 81.24% with Rattus norvegicus [6]; 42.5 mg/dL in the series on Rattus norvegicus [7]; 123.5 mg/dL with Rattus norvegicus [8]. Further, the Rf in [2] was 0.52. Moreover, the AI in the series on Rattus norvegicus [9] was determined as 1.91.

Take `O=C(O)COc1ccc(-c2cc(-c3ccco3)no2)cc1`: the Activity came out at 87 mg/dL in the series with Rattus norvegicus [3]; 22.4 mg/dL with Rattus norvegicus [4]; 22.6 mg/dL in the series on Rattus norvegicus [5]; 83.4% with Rattus norvegicus [6]; 42 mg/dL with Rattus norvegicus [7]; 113 mg/dL in the series on Rattus norvegicus [8]. Besides, in [2], the Rf is listed as 0.46. Moreover, the AI in the series with Rattus norvegicus [9] is reported as 1.69.

`Oc1ccc(-c2cc(-c3ccc(Cl)cc3)no2)cc1`: the Rf in [2] is 0.6.

Consider `O=C(/C=C/c1ccc(O)cc1)c1ccc(F)cc1`, for which the Rf in series [1] was determined as 0.62.

Consider `COc1ccccc1/C=C/C(=O)c1ccc(O)cc1`, for which the Rf in series [1] is 0.51.

As for `Oc1ccccc1-c1cc(-c2ccccc2)on1`, the Rf in series [2] is 0.6.

Turning to `COc1ccccc1-c1cc(-c2ccc(OCC(=O)O)cc2)on1`, the Activity in the series on Rattus norvegicus [3] came out at 77.5 mg/dL; with Rattus norvegicus [4], 10.5 mg/dL; in the series with Rattus norvegicus [5], 23.5 mg/dL; in the series with Rattus norvegicus [6], 83.89%; with Rattus norvegicus [7] it was 44.5 mg/dL; with Rattus norvegicus [8] it was 117.5 mg/dL. Besides, the Rf in series [2] is 0.45. Moreover, the AI in the series on Rattus norvegicus [9] is listed as 1.64.

As to `O=C(/C=C/c1ccc(Cl)cc1)c1ccc(O)cc1`, in series [1], the Rf is 0.56.

As for `COc1cc(-c2cc(-c3ccc(OCC(=O)O)cc3)on2)cc(OC)c1OC`, the Activity is 82.5 mg/dL in the series on Rattus norvegicus [3]; 29 mg/dL with Rattus norvegicus [4]; 25.5 mg/dL with Rattus norvegicus [5]; 79.47% with Rattus norvegicus [6]; 40.5 mg/dL with Rattus norvegicus [7]; 125 mg/dL in the series with Rattus norvegicus [8]. For the same compound, the Rf in [2] was found to be 0.51. Moreover, in the series on Rattus norvegicus [9], the AI stood at 2.09.

For `O=C(/C=C/c1c(Cl)cccc1Cl)c1ccc(O)cc1`, in series [1], the Rf is given as 0.52.

Take `Oc1ccc(-c2cc(-c3ccco3)no2)cc1`: in series [2], the Rf stood at 0.61.

As for `O=C(O)COc1ccc(-c2cc(-c3ccccc3Cl)no2)cc1`, the Activity in the series on Rattus norvegicus [3] is 148.5 mg/dL; in the series on Rattus norvegicus [4], 86.5 mg/dL; in the series with Rattus norvegicus [5], 22 mg/dL; with Rattus norvegicus [6], 82.81%; with Rattus norvegicus [7], 40 mg/dL; in the series with Rattus norvegicus [8] it was 110 mg/dL. Besides, in series [2], the Rf was determined as 0.48. For the same compound, in the series on Rattus norvegicus [9], the AI is given as 1.75.

Turning to `O=C(O)COc1ccc(-c2cc(-c3ccc(Cl)cc3)no2)cc1`, the Activity in the series on Rattus norvegicus [3] was found to be 83.5 mg/dL; with Rattus norvegicus [4] it was 16.2 mg/dL; with Rattus norvegicus [5], 26.3 mg/dL; in the series with Rattus norvegicus [6], 78.29%; in the series with Rattus norvegicus [7], 41 mg/dL; in the series with Rattus norvegicus [8] it was 131.5 mg/dL. In addition, in series [2], the Rf came out at 0.53. For the same compound, in the series on Rattus norvegicus [9], the AI was 2.21.

Take `O=C(O)COc1ccc(-c2cc(-c3c(Cl)cccc3Cl)no2)cc1`: the Activity in the series on Rattus norvegicus [3] was found to be 90 mg/dL; in the series with Rattus norvegicus [4], 22.8 mg/dL; in the series with Rattus norvegicus [5] it was 22.7 mg/dL; in the series on Rattus norvegicus [6], 84.77%; in the series with Rattus norvegicus [7], 44.5 mg/dL; in the series with Rattus norvegicus [8], 113.5 mg/dL. In addition, the Rf in series [2] was 0.5. For the same compound, the AI in the series on Rattus norvegicus [9] worked out at 1.55.

On to `COc1cc(/C=C/C(=O)c2ccccc2)ccc1O`, for which the Rf in [1] is 0.54.

In the case of `O=C(/C=C/c1ccccc1Cl)c1ccc(O)cc1`, in series [1], the Rf is on record as 0.6.
